Where two headings read alike, the source gives them in different places. Marks after values point to notes of the source that are not given here.
Test: LogP by HPLC on reversed phase columns (EEC directive 79/831 Annex V.A8)
Type: physicochemical
Description: [table] If more than one Log P value is available within the same method, all the values are given and separated by “+”. […] Lambda-max-values were determined using UV-spectra from 200 nm to 400 nm and the peak values of the chromatographic signals.

[1] = method [a]: LC-UV, acidic range, 0.1% formic acid in water and acetonitrile as eluent

Which LogP [1] does the source give for COC(Cn1cncn1)(c1ccc(Cl)cc1F)C1(Oc2c(F)cc(Cl)cc2F)CC1 (racemic) [Example I-25] here?
Its LogP is 4.41^[a].

For O=C(c1ccc(F)cc1F)C1(Oc2cc(F)c(F)cc2F)CC1 [IV-18], which LogP [1] is on record?
The LogP was 3.94^[a].

Which LogP [1] does the source give for OC(Cn1cncn1)(c1ccc(F)cc1F)C1(Oc2cc(F)c(F)c(F)c2)CC1 (racemic) [Example I-05] here?
Its LogP is 3.44^[a].

Which LogP [1] does the source give for OC(Cn1cncn1)(c1ccc(F)cc1F)C1(Oc2c(Cl)cc(OC(F)(F)F)cc2Cl)CC1 (racemic) [Example I-09] here?
The LogP was 4.62^[a].

Which LogP [1] does the source give for O=C(c1ccc(F)cc1F)C1(Oc2c(Cl)cc(Br)cc2Cl)CC1 [IV-7] here?
Its LogP is 5.01^[a].

Which LogP [1] does the source give for OC(Cn1cncn1)(c1ccc(F)cc1F)C1(Oc2cc(F)c(F)cc2F)CC1 (racemic) [Example I-28] here?
Its LogP is 3.17^[a].

Which LogP [1] does the source give for O=C(c1ccc(Cl)cc1F)C1(Oc2c(F)cc(Cl)cc2F)CC1 [IV-16] here?
The LogP was 5.03^[a].

With COC(Cn1cncn1)(c1ccc(F)cc1F)C1(Oc2c(Cl)ccc(Cl)c2Cl)CC1 (racemic) [Example I-15] as the molecule, how does the LogP [1] read?
Its LogP is 4.46^[a].

With OC(Cn1cncn1)(c1ccc(Cl)cc1F)C1(Oc2c(F)cc(F)cc2F)CC1 (racemic) [Example I-24] as the molecule, how does the LogP [1] read?
The LogP was 3.51^[a].

For O=C(c1ccc(F)cc1F)C1(Oc2c(F)ccc(F)c2Cl)CC1 [IV-20], which LogP [1] is on record?
The LogP was 4.25^[a].

Which LogP [1] does the source give for OC(Cn1cncn1)(c1ccc(F)cc1F)C1(Oc2cc(F)c(Br)c(F)c2)CC1 (racemic) [Example I-30] here?
The LogP was 3.85^[a].

Which LogP does the source give for OC(Cn1cncn1)(c1ccc(F)cc1F)C1(Oc2c(F)cc(F)cc2F)CC1 (centres unmarked) [Example I-02, 1-(2,4-difluorophenyl)-2-(1H-1,2,4-triazol-1-yl)-1-[1-(2,4,6-trifluorophenoxy)cyclopropyl]ethanol] here?
Its LogP is 3.10^[b].

What about the chromatographic logP (LogP) of the same molecule?
Its chromatographic logP is 3.11.

Which LogP [1] does the source give for Fc1ccc(C2(C3(Oc4c(Cl)cc(Br)cc4Cl)CC3)CO2)c(F)c1 (racemic) [Example V-08] here?
Its LogP is 5.72^[a].

Which LogP [1] does the source give for Fc1ccc(C2(C3(Oc4c(Cl)cc(SC(F)(F)F)cc4Cl)CC3)CO2)c(F)c1 (centres unmarked) [Example V-13] here?
Its LogP is 6.07^[a].

For OC(Cn1cncn1)(c1ccc(F)cc1F)C1(Oc2c(Cl)ccc(Cl)c2Cl)CC1 (racemic) [Example I-06], which LogP [1] is on record?
Its LogP is 4.19^[a].

With N#Cc1cc(Cl)c(OC2(C(=O)c3ccc(F)cc3F)CC2)c(Cl)c1 [IV-14] as the molecule, how does the LogP [1] read?
Its LogP is 4.15^[a].

Which LogP [1] does the source give for COC(Cn1cncn1)(c1ccc(Cl)cc1F)C1(Oc2c(F)cc(F)cc2F)CC1 (racemic) [Example I-26] here?
Its LogP is 3.97^[a].

Which LogP [1] does the source give for OC(Cn1cncn1)(c1ccc(F)cc1F)C1(Oc2ccc(F)c(F)c2F)CC1 (racemic) [Example I-27] here?
Its LogP is 3.30^[a].

With Fc1ccc(C2(C3(Oc4c(F)cc(Cl)cc4F)CC3)CO2)c(F)c1 (racemic) [Example V-02] as the molecule, how does the LogP [1] read?
Its LogP is 4.59^[a].

Which LogP [1] does the source give for Fc1ccc(C2(C3(Oc4c(F)cc(Br)cc4F)CC3)CO2)c(F)c1 (racemic) [Example V-03] here?
The LogP was 4.86.

What about the LogP (method [b]: LC-UV, neutral range, 0.001 molar ammonium acetate solution in water and acetonitrile as eluent) of the same molecule?
Its LogP is 4.87.

With OC(Cn1cncn1)(c1ccc(F)cc1F)C1(Oc2c(F)cc(Br)cc2F)CC1 (single isomer, unassigned) [Example I-22] as the molecule, how does the LogP [1] read?
The LogP was 3.63^[a].

For O=C(c1ccc(F)cc1F)C1(Oc2c(Cl)cc(SC(F)(F)F)cc2Cl)CC1 [IV-13], which LogP [1] is on record?
Its LogP is 5.85^[a].

Which LogP [1] does the source give for O=C(c1ccc(F)cc1F)C1(Oc2cc(F)c(Br)c(F)c2)CC1 [IV-19] here?
Its LogP is 4.54^[a].

Which LogP [1] does the source give for Fc1cc(F)c(OC2(C3(c4ccc(Cl)cc4F)CO3)CC2)c(F)c1 (centres unmarked) [Example V-15] here?
The LogP was 4.72^[a].

With O=C(c1ccc(F)cc1F)C1(Oc2c(Cl)ccc(Cl)c2Cl)CC1 [IV-8] as the molecule, how does the LogP [1] read?
The LogP was 5.03^[a].

Which LogP [1] does the source give for OC(Cn1cncn1)(c1ccc(F)cc1F)C1(Oc2c(Cl)cc(SC(F)(F)F)cc2Cl)CC1 (racemic) [Example I-11] here?
The LogP was 4.97^[a].

With OC(Cn1cncn1)(c1ccc(F)cc1F)C1(Oc2c(F)cc(Cl)cc2F)CC1 (single isomer, unassigned) [Example I-19] as the molecule, how does the LogP [1] read?
The LogP was 3.55^[a].

For OC(Cn1cncn1)(c1ccc(F)cc1F)C1(Oc2c(Cl)cc(F)cc2Cl)CC1 (racemic) [Example I-16], which LogP [1] is on record?
The LogP was 3.94^[a].

With Fc1ccc(C2(C3(Oc4c(Cl)cc(C(F)(F)F)cc4Cl)CC3)CO2)c(F)c1 (racemic) [Example V-11] as the molecule, how does the LogP [1] read?
Its LogP is 5.51^[a].

With OC(Cn1cncn1)(c1ccc(F)cc1F)C1(Oc2c(F)ccc(F)c2Cl)CC1 (racemic) [Example I-29] as the molecule, how does the LogP [1] read?
Its LogP is 3.42^[a].

With O=C(c1ccc(F)cc1F)C1(Oc2c(Cl)cc(C(F)(F)F)cc2Cl)CC1 [IV-11] as the molecule, how does the LogP [1] read?
Its LogP is 5.25^[a].

Which LogP [1] does the source give for O=C(c1ccc(F)cc1F)C1(Oc2c(F)ccc(Cl)c2F)CC1 [IV-9] here?
The LogP was 4.27^[a].

With O=C(c1ccc(F)cc1F)C1(Oc2ccc(F)c(F)c2F)CC1 [IV-17] as the molecule, how does the LogP [1] read?
Its LogP is 4.01^[a].

Which LogP [1] does the source give for OC(Cn1cncn1)(c1ccc(F)cc1F)C1(Oc2c(F)ccc(Cl)c2F)CC1 (racemic) [Example I-08] here?
The LogP was 3.39^[a].

With O=C(c1ccc(Cl)cc1F)C1(Oc2c(F)cc(Br)cc2F)CC1 [IV-21] as the molecule, how does the LogP [1] read?
The LogP was 5.05^[a].

Which LogP [1] does the source give for OC(Cn1cncn1)(c1ccc(F)cc1F)C1(Oc2c(F)cc(Cl)cc2F)CC1 (single isomer, unassigned) [Example I-20] here?
The LogP was 3.55^[a].

With O=C(c1ccc(F)cc1F)C1(Oc2c(F)cc(Cl)cc2F)CC1 [IV-2] as the molecule, how does the LogP [1] read?
Its LogP is 4.44^[a].

For OC(Cn1cncn1)(c1ccc(F)cc1F)C1(Oc2c(Cl)cc(Br)cc2Cl)CC1 (racemic) [Example I-12], which LogP [1] is on record?
The LogP was 4.62^[a].

For COC(Cn1cncn1)(c1ccc(F)cc1F)C1(Oc2c(F)ccc(Cl)c2F)CC1 (racemic) [Example I-17], which LogP [1] is on record?
The LogP was 3.85^[a].

For CC(=O)OC(Cn1cncn1)(c1ccc(F)cc1F)C1(Oc2c(F)cc(F)cc2F)CC1 (centres unmarked) [Example I-04, 1-(2,4-difluorophenyl)-2-(1H-1,2,4-triazol-1-yl)-1-[1-(2,4,6-trifluorophenoxy)cyclopropyl]ethyl acetate], which LogP is on record?
Its LogP is 3.29^[b].

What about the chromatographic logP (LogP) of the same molecule?
The chromatographic logP was 3.32.

With Fc1ccc(C2(C3(Oc4c(F)cc(F)cc4F)CC3)CO2)c(F)c1 (centres unmarked) [Example V-01, 2-(2,4-difluorophenyl)-2-[1-(2,4,6-trifluorophenoxy)cyclopropyl]oxirane] as the molecule, how does the chromatographic logP (reversed phase HPLC column, method [a]: LC-UV, acidic range, 0.1% formic acid in water and acetonitrile as eluent, read-out: LogP) read?
Its chromatographic logP is 4.26.

What about the chromatographic logP (reversed phase HPLC column, method [b]: LC-UV, neutral range, 0.001 molar ammonium acetate solution in water and acetonitrile as eluent, read-out: LogP) of the same molecule?
Its chromatographic logP is 4.26.

Which LogP [1] does the source give for O=C(c1ccc(F)cc1F)C1(Oc2c(Cl)cc(OC(F)(F)F)cc2Cl)CC1 [IV-12] here?
The LogP was 5.39^[a].

For O=C(c1ccc(Cl)cc1F)C1(Oc2c(F)cc(F)cc2F)CC1 [IV-15], which LogP [1] is on record?
The LogP was 4.49^[a].

With OC(Cn1cncn1)(c1ccc(Cl)cc1F)C1(Oc2c(F)cc(Cl)cc2F)CC1 (racemic) [Example I-23] as the molecule, how does the LogP [1] read?
Its LogP is 4.01^[a].

For O=C(c1ccc(F)cc1F)C1(Oc2c(F)cc(Br)cc2F)CC1 [IV-3], which LogP [1] is on record?
Its LogP is 4.54^[a].

For OC(Cn1cncn1)(c1ccc(F)cc1F)C1(Oc2c(Cl)cc(C(F)(F)F)cc2Cl)CC1 (racemic) [Example I-10], which LogP [1] is on record?
Its LogP is 4.46^[a].

With Fc1ccc(C2(C3(Oc4c(Cl)ccc(Cl)c4Cl)CC3)CO2)c(F)c1 (racemic) [Example V-09] as the molecule, how does the LogP [1] read?
The LogP was 5.27^[a].

Which LogP [1] does the source give for O=C(c1ccc(F)cc1F)C1(Oc2cc(F)c(F)c(F)c2)CC1 [IV-10] here?
Its LogP is 4.20^[a].

Which LogP [1] does the source give for O=C(c1ccc(F)cc1F)C1(Oc2c(F)ccc(F)c2F)CC1 [IV-6] here?
The LogP was 3.99^[a].

For Fc1ccc(C2(C3(Oc4cc(F)c(F)cc4F)CC3)CO2)c(F)c1 (centres unmarked) [Example V-17], which LogP [1] is on record?
Its LogP is 4.10^[a].

Which LogP [1] does the source give for Fc1ccc(C2(C3(Oc4cc(F)c(Br)c(F)c4)CC3)CO2)c(F)c1 (centres unmarked) [Example V-18] here?
The LogP was 4.86^[a].

For OC(Cn1cncn1)(c1ccc(F)cc1F)C1(Oc2c(F)cc(Br)cc2F)CC1 (single isomer, unassigned) [Example I-21], which LogP [1] is on record?
Its LogP is 3.63^[a].

From patent US20180057467A1, “NOVEL TRIAZOLE DERIVATIVES” (BAYER CROPSCIENCE AKTIENGESELLSCHAFT, priority 2015, published 2018)
